Data on ten molecules can be found in ChEMBL document CHEMBL4811223, “Arenarosides A-G, Polyhydroxylated Oleanane-Type Saponins from Polycarpaea arenaria and their Cytotoxic and Antiangiogenic Activities” (J Nat Prod, 2021).

Assay [1] can be described thus: Antiangiogenic activity in endothelial cells assessed as inhibition of tube formation incubated for 18 hrs by matrigel-based inverted microscopic analysis. The format is functional. The note with it: Endothelial cell.
For assay [2], the system named is PC-3. The assay can be described thus: Cytotoxicity against human PC-3 cells assessed as cell growth inhibition after 48 hrs by MTT assay. Type of assay: functional, cell-based. The note with it: PC-3, 48 h. On the technique in general: Formazan colour is commonly taken as a measure of viable cells.
The subject of assay [3] is A549. The assay can be described thus: Cytotoxicity against human A549 cells assessed as cell growth inhibition after 48 hrs by MTT assay. The format is functional, cell-based. As to conditions: A549, 48 h.
For assay [4], the system named is RT-112. The assay can be described thus: Cytotoxicity against human RT-112 cells assessed as cell growth inhibition after 48 hrs by MTT assay. Type of assay: functional, cell-based. The note with it: RT-112, 48 h.
For assay [5], the system named is HCT-116. In words: Cytotoxicity against human HCT-116 cells assessed as cell growth inhibition after 48 hrs by MTT assay. The format is functional, cell-based. The note with it: HCT-116, 48 h.

Bounds are passed on as bounds.

With `CC(=O)OC[C@@]12[C@H](O)C[C@]3(C)C(=CC[C@@H]4[C@@]5(C)CC[C@H](O[C@@H]6OC[C@H](O[C@@H]7O[C@H](CO)[C@@H](O)[C@H](O)[C@H]7O[C@@H]7OC[C@@H](O)[C@H](O)[C@H]7O)[C@H](O)[C@H]6O[C@@H]6O[C@H](CO)[C@@H](O)[C@H](O)[C@H]6O)C(C)(C)[C@@H]5CC[C@]43C)[C@@H]1CC(C)(C)[C@@H](OC(C)=O)[C@@H]2O`, the IC50 in assay [1] is 5.2 µM; in assay [2] it was 9.9 µM; in assay [3] it was 9 µM; in assay [4], > 10 µM; in assay [5], 6.8 µM.
`COc1ccc(/C=C\c2cc(OC)c(OC)c(OC)c2)cc1O` [COMBRETASTATIN A4]: the IC50 in assay [1] is 0.37 µM.
Regarding `CC(=O)OC[C@@]12[C@H](O)[C@H](O)[C@]3(C)C(=CC[C@@H]4[C@@]5(C)CC[C@H](O[C@@H]6OC[C@H](O[C@@H]7O[C@H](CO)[C@@H](O)[C@H](O)[C@H]7O[C@@H]7OC[C@@H](O)[C@H](O)[C@H]7O)[C@H](O)[C@H]6O[C@@H]6O[C@H](CO)[C@@H](O)[C@H](O)[C@H]6O)C(C)(C)[C@@H]5CC[C@]43C)[C@@H]1CC(C)(C)C[C@@H]2O`, the IC50 in assay [1] was 35.8 µM; in assay [2], > 10 µM; in assay [3] it was > 10 µM; in assay [4] it was 7.8 µM; in assay [5], 9.8 µM.
On to `CC(=O)O[C@@H]1C[C@]2(C)C(=CC[C@@H]3[C@@]4(C)CC[C@H](O[C@@H]5OC[C@H](O[C@@H]6O[C@H](CO)[C@@H](O)[C@H](O)[C@H]6O[C@@H]6OC[C@@H](O)[C@H](O)[C@H]6O)[C@H](O)[C@H]5O[C@@H]5O[C@H](CO)[C@@H](O)[C@H](O)[C@H]5O)C(C)(C)[C@@H]4CC[C@]32C)[C@@H]2CC(C)(C)C[C@H](O)[C@]12CO`, for which the IC50 in assay [1] is 23.1 µM; in assay [2] it was > 10 µM; in assay [3] it was > 10 µM; in assay [4], > 10 µM; in assay [5], > 10 µM.
Regarding `CC1(C)C[C@H](O)[C@]2(CO)[C@H](O)[C@H](O)[C@]3(C)C(=CC[C@@H]4[C@@]5(C)CC[C@H](O[C@@H]6OC[C@H](O[C@@H]7O[C@H](CO)[C@@H](O)[C@H](O)[C@H]7O[C@@H]7OC[C@@H](O)[C@H](O)[C@H]7O)[C@H](O)[C@H]6O[C@@H]6O[C@H](CO)[C@@H](O)[C@H](O)[C@H]6O)C(C)(C)[C@@H]5CC[C@]43C)[C@@H]2C1`, the IC50 in assay [1] is 45.9 µM; in assay [2] it was > 10 µM; in assay [3] it was > 10 µM; in assay [4], > 10 µM; in assay [5] it was > 10 µM.
For the molecule `CC(=O)O[C@H]1C(=O)[C@@]2(C)[C@H]([C@H](OC(=O)c3ccccc3)[C@]3(O)C[C@H](OC(=O)[C@H](O)[C@@H](NC(=O)c4ccccc4)c4ccccc4)C(C)=C1C3(C)C)[C@]1(OC(C)=O)CO[C@@H]1C[C@@H]2O` [PACLITAXEL], the 50% inhibitory concentration (IC50) was 0.04 µM in assay [2], 0.7 µM in assay [3] and 0.07 µM in assay [4].
Consider `CC(=O)OC[C@@]12[C@H](O)[C@H](O)[C@]3(C)C(=CC[C@@H]4[C@@]5(C)CC[C@H](O[C@@H]6OC[C@H](O[C@@H]7O[C@H](CO)[C@@H](O)[C@H](O)[C@H]7O[C@@H]7OC[C@@H](O)[C@H](O)[C@H]7O)[C@H](O)[C@H]6O[C@@H]6O[C@H](CO)[C@@H](O)[C@H](O)[C@H]6O)C(C)(C)[C@@H]5CC[C@]43C)[C@@H]1CC(C)(C)[C@@H](OC(C)=O)[C@@H]2O`, for which the IC50 in assay [1] is 15.9 µM; in assay [2] it was > 10 µM; in assay [3], > 10 µM; in assay [4], > 10 µM; in assay [5], > 10 µM.
Turning to `CC(=O)O[C@H]1CC(C)(C)C[C@H]2C3=CC[C@@H]4[C@@]5(C)CC[C@H](O[C@@H]6OC[C@H](O[C@@H]7O[C@H](CO)[C@@H](O)[C@H](O)[C@H]7O[C@@H]7OC[C@@H](O)[C@H](O)[C@H]7O)[C@H](O)[C@H]6O[C@@H]6O[C@H](CO)[C@@H](O)[C@H](O)[C@H]6O)C(C)(C)[C@@H]5CC[C@@]4(C)[C@]3(C)[C@@H](O)[C@@H](O)[C@@]12CO`, the 50% inhibitory concentration (IC50) was 1.7 µM in assay [1]; 9.4 µM in assay [2]; 6.1 µM in assay [3]; 6.4 µM in assay [4]; 7.7 µM in assay [5].
The like results for `CC(=O)O[C@@H]1[C@H](O)[C@]2(C)C(=CC[C@@H]3[C@@]4(C)CC[C@H](O[C@@H]5OC[C@H](O[C@@H]6O[C@H](CO)[C@@H](O)[C@H](O)[C@H]6O[C@@H]6OC[C@@H](O)[C@H](O)[C@H]6O)[C@H](O)[C@H]5O[C@@H]5O[C@H](CO)[C@@H](O)[C@H](O)[C@H]5O)C(C)(C)[C@@H]4CC[C@]32C)[C@@H]2CC(C)(C)C[C@H](O)[C@]12CO` were, in that order, 5.1 µM, > 10 µM, > 10 µM, > 10 µM and > 10 µM.
The like results for `CC(=O)O[C@H]1[C@H](OC(C)=O)[C@]2(CO)[C@H](O)[C@H](O)[C@]3(C)C(=CC[C@@H]4[C@@]5(C)CC[C@H](O[C@@H]6OC[C@H](O[C@@H]7O[C@H](CO)[C@@H](O)[C@H](O)[C@H]7O[C@@H]7OC[C@@H](O)[C@H](O)[C@H]7O)[C@H](O)[C@H]6O[C@@H]6O[C@H](CO)[C@@H](O)[C@H](O)[C@H]6O)C(C)(C)[C@@H]5CC[C@]43C)[C@@H]2CC1(C)C` were, in that order, 3.2 µM, > 10 µM, 8.7 µM, 7.3 µM and > 10 µM.

Broadly, the IC50 is the concentration that inhibits the measured activity by half.
